Data set [1] has as its system P. falciparum female gametocytes. As to the kind of experiment: P. falciparum Dual Gamete Formation Assay (PfDGFA), female readout (Pfs25-positive female gametes). It is filed as cell-based, Plasmodium falciparum NF54. Particulars: for Selectivity ratio F: HepG2 Tox50 versus female IC50; for inhibition at 2 µM / Average inhibition female (%) / % inhibition female (individual replicates) R1 / % inhibition female (individual replicates) R3 / % inhibition female (individual replicates) R4: 24h preincubation with gametocytes; for IC50: PfDGFA, 24 h incubation with gametocytes before induction, female gamete readout, read-out: Female IC50; for HitlevelF: number of replicates with >50% inhibition in the female readout. In a few lines: (§1)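 Mature NF54 gametocytes (day 14) were incubated with compound for 24 h at 37°C under 1% O2/3% CO2, then triggered with xanthurenic acid ookinete medium plus Cy3-anti-Pfs25. Exflagellation was imaged by brightfield; after a further 24 h at 28°C, Pfs25-positive female gametes were imaged by fluorescence and counted by automated image analysis.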

Data set [2] has as its system P. falciparum male gametocytes. The experiment in a line: P. falciparum Dual Gamete Formation Assay (PfDGFA), male readout (exflagellation). The data set is classed as cell-based, Plasmodium falciparum NF54. Particulars: for Selectivity Ratio M: HepG2 Tox50 versus male IC50; for inhibition at 2 µM / Average inhibition male (%) / % inhibition male (individual replicates) R1 / % inhibition male (individual replicates) R3 / % inhibition male (individual replicates) R4: 24h preincubation with gametocytes; for IC50: PfDGFA, 24 h incubation with gametocytes before induction, exflagellation readout, read-out: Male IC50; for HitlevelM: number of replicates with >50% inhibition in the male readout. In a few lines: as §1

In a further data set the test system is HepG2 cells. The experiment in a line: HepG2 cytotoxicity counter-screen. Particulars: cytotoxic activity against HepG2 cells. (In general: The purpose of a counterscreen is to sort out artefacts and off-target activity.)
Where [3] appears, read: Plasmodium falciparum, 2µM, average of replicates, read-out: Average inhibition female (%).
Setting [4] is: Plasmodium falciparum, 2µM, replicate R1, read-out: % inhibition female (individual replicates) R1.
Where [5] appears, read: Plasmodium falciparum, 2µM, replicate R2, read-out: % inhibition female (individual replicates) R2.
Setting [6] is: Plasmodium falciparum, 2µM, replicate R3, read-out: % inhibition female (individual replicates) R3.
Setting [7] is: Plasmodium falciparum, 2µM, replicate R4, read-out: % inhibition female (individual replicates) R4.
Where [8] appears, read: Plasmodium falciparum, 2µM, average of replicates, read-out: Average inhibition male (%).
The mark [9] stands for this setting: Plasmodium falciparum, 2µM, replicate R1, read-out: % inhibition male (individual replicates) R1.
Setting [10] is: Plasmodium falciparum, 2µM, replicate R2, read-out: % inhibition male (individual replicates) R2.
Setting [11] is: Plasmodium falciparum, 2µM, replicate R3, read-out: % inhibition male (individual replicates) R3.
The mark [12] stands for this setting: Plasmodium falciparum, 2µM, replicate R4, read-out: % inhibition male (individual replicates) R4.
Where [13] appears, read: PfDGFA at 2µM, average of replicates.

The results in this text go back to PMC10584170, “Machine learning-based phenotypic imaging to characterise the targetable biology of Plasmodium falciparum male gametocytes for the development of transmission-blocking antimalarials” (PLOS Pathogens, 2023).

Like-named read-outs stand apart in the source and are kept apart here.

The term inhibition denotes the relative decrease from the control value, in per cent. One may read the IC50 as the concentration needed to halve the response being measured. On to `c1ccc(-c2nc(Nc3nc4ccccc4[nH]3)[nH]c2-c2ccccc2)cc1` [TCMDC-139099], for which the “Selectivity ratio F” value in data set [1] came to 15.94. In addition, the inhibition at 2 µM worked out at 58.5% in data set [1] (setting [3]); 38.7% in data set [1] (setting [4]); 75.2% in data set [1] (setting [5]); 46.9% in data set [1] (setting [6]); 73.1% in data set [1] (setting [7]); 97.9% in data set [2] (setting [8]). Also, the inhibition at 2 µM turned out to be 97.5% in data set [2] (setting [9]), 98.5% in data set [2] (setting [10]), 96.8% in data set [2] (setting [11]) and 98.9% in data set [2] (setting [12]). For the same compound, the IC50 in data set [1] (Plasmodium falciparum) is 1020 nM; in data set [2] (Plasmodium falciparum) it was 950 nM. Further, in data set [2], the “Selectivity Ratio M” value stood at 17.05. This compound also had a Tox50 with HepG2 cells of 16.22 µM.

For the compound `COc1ccc2nc(N=C3NC4(c5ccccc5)NC(=Nc5nc6ccc(OC)cc6[nH]5)NC4(c4ccccc4)N3)[nH]c2c1.O=C(O)C(F)(F)F` (stereo not drawn) [TCMDC-139632], in data set [1], the “Selectivity ratio F” value is 5.74. Besides, the inhibition at 2 µM in data set [1] (setting [3]) turned out to be 18.9%; in data set [1] (setting [4]), 23.3%; in data set [1] (setting [5]) it was 24.8%; in data set [1] (setting [6]), 10.6%; in data set [1] (setting [7]), 17.1%; in data set [2] (setting [8]) it was 94.4%. Moreover, the inhibition at 2 µM came to 95.5% in data set [2] (setting [9]), 96.3% in data set [2] (setting [10]), 95.1% in data set [2] (setting [11]) and 90.9% in data set [2] (setting [12]). In addition, the values for the IC50 in data set [1] (Plasmodium falciparum) and in data set [2] (Plasmodium falciparum) were 5840 nM and 1160 nM, respectively. Besides, the “Selectivity Ratio M” value in data set [2] is reported as 29.01. In the data set with HepG2 cells, this compound had a Tox50 of 33.52 µM.

For `Br.c1cc(Nc2nc(-c3ccc(-c4csc(Nc5ccncc5)n4)cc3)cs2)ccn1` [TCMDC-139725], the “Selectivity ratio F” value in data set [1] is recorded as 15.01. In addition, the inhibition at 2 µM in data set [1] (setting [3]) is 92.1%; in data set [1] (setting [4]) it was 90.8%; in data set [1] (setting [5]), 87.3%; in data set [1] (setting [6]), 93.4%; in data set [1] (setting [7]), 96.9%; in data set [2] (setting [8]), 95.5%. For the same compound, the inhibition at 2 µM was determined as 101% in data set [2] (setting [9]), 98.4% in data set [2] (setting [10]), 91.3% in data set [2] (setting [11]) and 91.8% in data set [2] (setting [12]). Further, the half-inhibitory concentration (IC50) in data set [1] (Plasmodium falciparum) and in data set [2] (Plasmodium falciparum) was 300 nM each time. Further, the “Selectivity Ratio M” value in data set [2] is recorded as 15.17. This compound also showed a Tox50 in the data set with HepG2 cells of 4.53 µM.

Consider `CN(C)c1ccnc2ccc(NC(=O)Nc3ccnc4ccccc34)cc12` [TCMDC-139749], for which the “Selectivity ratio F” value in data set [1] is listed as 3.83. Also, the inhibition at 2 µM in data set [1] (setting [3]) was 29.2%; in data set [1] (setting [4]), 32.7%; in data set [1] (setting [5]), 28.8%; in data set [1] (setting [6]), 22.7%; in data set [1] (setting [7]), 32.6%; in data set [2] (setting [8]) it was 96.1%. In addition, the inhibition at 2 µM in data set [2] (setting [9]) came to 97.3%; in data set [2] (setting [10]), 94.7%; in data set [2] (setting [12]) it was 96.1%. The results for the IC50 in data set [1] (Plasmodium falciparum) and in data set [2] (Plasmodium falciparum) were 5920 nM and 1700 nM, respectively. In data set [2], the “Selectivity Ratio M” value is on record as 13.31. In the data set with HepG2 cells, this compound registered a Tox50 of 22.68 µM.

As to `CC(Cc1ccc(C(=O)Nc2ccc(CC(C)NCCc3cccc(Cl)c3)cc2)cc1)NCCc1ccc(C(F)(F)F)cc1` (stereo not drawn) [TCMDC-139790], in data set [1], the “Selectivity ratio F” value is listed as 3.01 and the IC50 was 1250 nM. Also, the “Average inhibition female (%)” value in data set [1] (setting [13]) is given as 37.4%. Moreover, in data set [1] (PfDGFA at 2µM, replicate R1), the “% inhibition female (individual replicates) R1” value stood at 27.8%. Further, the “% inhibition female (individual replicates) R3” value in data set [1] (PfDGFA at 2µM, replicate R3) is 24.4%. Besides, in data set [1] (PfDGFA at 2µM, replicate R4), the “% inhibition female (individual replicates) R4” value is reported as 27.0%. In addition, the HitlevelF in data set [1] (2µM) came out at 1. Besides, in data set [2], the “Selectivity Ratio M” value is listed as 2.39 and the IC50 came to 1580 nM. In addition, the “Average inhibition male (%)” value in data set [2] (setting [13]) turned out to be 83.5%. In addition, the “% inhibition male (individual replicates) R1” value in data set [2] (PfDGFA at 2µM, replicate R1) was 92.2%. Further, the “% inhibition male (individual replicates) R3” value in data set [2] (PfDGFA at 2µM, replicate R3) is 51.0%. For the same compound, in data set [2] (PfDGFA at 2µM, replicate R4), the “% inhibition male (individual replicates) R4” value is on record as 92.9%. For the same compound, in data set [2] (2µM), the HitlevelM is 4. This compound had a Tox50 in the data set with HepG2 cells of 3.76 µM.

On to `CC(Cc1ccc(NC(=O)c2ccc(CNCCCCc3ccccc3)cc2)cc1)NCCc1cccc(Cl)c1.Cl` (stereo not drawn) [TCMDC-139866], for which, in data set [1], the “Selectivity ratio F” value is on record as 1.02 and the IC50 is 3730 nM. The “Average inhibition female (%)” value in data set [1] (setting [13]) was found to be 35.2%. In addition, the “% inhibition female (individual replicates) R1” value in data set [1] (PfDGFA at 2µM, replicate R1) is on record as 34.1%. Also, the “% inhibition female (individual replicates) R3” value in data set [1] (PfDGFA at 2µM, replicate R3) is 6.7%. Further, the “% inhibition female (individual replicates) R4” value in data set [1] (PfDGFA at 2µM, replicate R4) amounted to 45.1%. The compound further displayed a HitlevelF in data set [1] (2µM) of 1. In data set [2], the “Selectivity Ratio M” value was found to be 2.02 and the IC50 came to 1880 nM. In addition, the “Average inhibition male (%)” value in data set [2] (setting [13]) is 80.8%. In data set [2] (PfDGFA at 2µM, replicate R1), the “% inhibition male (individual replicates) R1” value is listed as 85.9%. Moreover, in data set [2] (PfDGFA at 2µM, replicate R3), the “% inhibition male (individual replicates) R3” value worked out at 43.9%. Also, in data set [2] (PfDGFA at 2µM, replicate R4), the “% inhibition male (individual replicates) R4” value is on record as 97.6%. Also, in data set [2] (2µM), the HitlevelM worked out at 3. In the data set on HepG2 cells, this compound came in with a Tox50 of 3.81 µM.

Turning to `CC(Cc1ccc(OCCCCOc2ccccc2)cc1)NCCC1CCCN1C` (stereo not drawn) [TCMDC-140017], the “Average inhibition female (%)” value in data set [1] (2µM, average of replicates) was 62.2%. Moreover, the “% inhibition female (individual replicates) R1” value in data set [1] (2µM, replicate R1) is 37.3%. The “% inhibition female (individual replicates) R3” value in data set [1] (2µM, replicate R3) was 46.8%. The “% inhibition female (individual replicates) R4” value in data set [1] (2µM, replicate R4) came out at 81.6%. In data set [1], the “Selectivity ratio F” value came out at 1.19 and the IC50 was determined as 1370 nM. Also, in data set [2] (2µM, average of replicates), the “Average inhibition male (%)” value came out at 99.4%. Moreover, the “% inhibition male (individual replicates) R1” value in data set [2] (2µM, replicate R1) was found to be 96.0%. In data set [2] (2µM, replicate R3), the “% inhibition male (individual replicates) R3” value is reported as 99.2%. Also, in data set [2] (2µM, replicate R4), the “% inhibition male (individual replicates) R4” value is 102.2%. Besides, in data set [2], the “Selectivity Ratio M” value stood at 2.45 and the IC50 was 660 nM. This compound also had a Tox50 with HepG2 cells of 1.62 µM.

With `CN(CCCCN)Cc1ccc(-c2ccc(Cl)cc2)cc1` [TCMDC-140123], in data set [1], the “Selectivity ratio F” value came out at 1.81 and the IC50 was 3700 nM. Further, the “Average inhibition female (%)” value in data set [1] (setting [13]) turned out to be 20.6%. Moreover, the “% inhibition female (individual replicates) R1” value in data set [1] (PfDGFA at 2µM, replicate R1) was 26.7%. Besides, the “% inhibition female (individual replicates) R3” value in data set [1] (PfDGFA at 2µM, replicate R3) came to 14.8%. For the same compound, the “% inhibition female (individual replicates) R4” value in data set [1] (PfDGFA at 2µM, replicate R4) was determined as 10.1%. In data set [1] (2µM), the HitlevelF is recorded as 0. In data set [2], the “Selectivity Ratio M” value is given as 4.36 and the IC50 was 1530 nM. In addition, in data set [2] (setting [13]), the “Average inhibition male (%)” value is reported as 72.2%. In data set [2] (PfDGFA at 2µM, replicate R1), the “% inhibition male (individual replicates) R1” value worked out at 73.4%. Also, in data set [2] (PfDGFA at 2µM, replicate R3), the “% inhibition male (individual replicates) R3” value is given as 55.2%. Also, the “% inhibition male (individual replicates) R4” value in data set [2] (PfDGFA at 2µM, replicate R4) is 83.6%. Besides, the HitlevelM in data set [2] (2µM) was 4. The same compound had a Tox50 in the data set on HepG2 cells of 6.69 µM.
